Test results reported in patent US20060100431A1, “Biologically active compounds” (Amura Therapeutics Limited, priority 2002, published 2006).
Where two headings read alike, the source gives them in different places.

Tests used:
Assay type in all cases: biochemical
human cathepsin L = molecular target: T1, human cathepsin L (Homo sapiens, UniProt P07711); test: Cathepsin L peptidase activity assay (Ki); details: read-out: Ki, inhibitors of cathepsin L
T1 construct: purchased CN Biosciences
Method: Unless otherwise stated, all general chemicals and biochemicals were purchased from either the Sigma Chemical Company, Poole, Dorset, U.K or from Fisher Scientific UK, Loughborough, Leicestershire, U.K. Absorbance assays were carried out in flat-bottomed 96-well plates (Spectra; Greiner Bio-One Ltd., Stonehouse, Gloucestershire, U.K.) using a SpectraMax PLUS384 plate reader (Molecular Devices, Crawley, U.K.). Fluorescence high throughput assays were carried out in either 384-well microtitre plates (Corning Costar 3705 plates, Fisher Scientific) or 96-well ‘U’ bottomed Microfluor W1 microtitre plates (Thermo Labsystems, Ashford, Middlesex, U.K.). Fluorescence assays were monitored using a SpectraMax Gemini fluorescence plate reader (Molecular Devices). For substrates employing either a 7-amino-4-methylcoumarin (AMC) or a 7-amino-4-trifluoromethylcoumarin (AFC) fluorophore, assays were monitored at an excitation wavelength of 365 nm and an emission wavelength of 450 nm and the fluorescence plate reader calibrated with AMC. For substrates employing a 3-amino-benzoyl (Abz) fluorophore, assays were monitored at an excitation wavelength of 310 nm and an emission wavelength of 445 nm; the fluorescence plate reader calibrated with 3-amino-benzamide (Fluka). Unless otherwise indicated, all the peptidase substrates were purchased from Bachem UK, St Helens, Merseyside, UK. Substrates utilizing fluorescence resonance energy transfer methodology (i.e. FRET-based substrates) were synthesized at Incenta Limited using published methods (Atherton & Sheppard, Solid Phase Peptide Synthesis, IRL Press, Oxford, U.K, 1989) and employed Abz (2-aminobenzoyl) as the fluorescence donor and 3-nitro-tyrosine [Tyr(NO2)] as the fluorescence quencher (Meldal, M. and Breddam, K., Anal. Biochem, 195, 141-147, 1991). Hydroxyethylpiperazine ethanesulfonate (HEPES), tris-hydroxylmethyl aminomethane (tris) base, bis-tris-propane and all the biological detergents (e.g. CHAPS, zwittergents, etc.) were purchased from CN Biosciences UK, Beeston, Nottinghamshire, U.K. Glycerol was purchased from Amersham Pharmacia Biotech, Little Chalfont, Buckinghamshire, U.K. Stock solutions of substrate or inhibitor were made up to 10 mM in 100% dimethylsulfoxide (DMSO) (Rathburns, Glasgow, U.K.) and diluted as appropriately required. In all cases the DMSO concentration in the assays was maintained at less than 1% (vol./vol.).
Assay protocols were based on literature precedent (Table 4; Barrett, A. J., Rawlings, N. D. and Woessner, J. F., 1998, Handbook of Proteolytic Enzymes, Academic Press, London and references therein) and modified as required to suit local assay protocols. Enzyme was added as required to initiate the reaction and the activity, as judged by the change in fluorescence upon conversion of substrate to product, was monitored over time. All assays were carried out at 25±1° C.
Bovine cathepsin S, human cathepsin L, human cathepsin H and human cathepsin B were obtained from CN Biosciences. Recombinant human cathepsin S, human cathepsin K and human cathepsin X were obtained from Dr. Boris Turk (Josef Stefan Institute, Ljubljana, Slovenia). Unless otherwise stated, all peptidase activity assays were carried out in 10 mM bis-tris-propane (BTP), pH 6.5 containing 1 mM EDTA, 5 mM 2-mercaptoethanol and 1 mM CaCl2. Human cathepsin H activity assays were carried out in 10 mM BTP pH 6.5, 142 mM NaCl2, 1 mM CaCl2, 1 mM EDTA, 1 mM DTT, 0.035 mM Zwittergent 3-16. Human cathepsin K assays were carried out in 100 mM sodium acetate; pH 5.5 containing 20 mM L-cysteine and 1 mM EDTA (Bossard, M. J., et. al., J. Biol. Chem., 21, 12517-12524, 1996). Human cathepsin X assays were carried out in 100 mM sodium acetate; pH 5.5 containing 20 mM L-cysteine; 0.05% (w/v) Brij 35 and 1 mM EDTA (Santamaria, I., et. al., J. Biol. Chem., 273, 16816-16823, 1998; Klemencic, J, et al., Eur. J. Biochem., 267, 5404-5412, 2000). […]

Wild-type cruzipain = Wild-type cruzipain (Trypanosoma cruzi, UniProt P25779); test: Trypanosoma cruzi cruzipain peptidase activity assay (Ki)
Outline: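 Native cruzipain from T. cruzi Dm28 epimastigotes, 2.5 nM, in 100 mM sodium phosphate pH 6.75 with 1 mM EDTA and 10 mM L-cysteine, 25 °C, DMSO <1%. Rates taken from continuous fluorogenic substrate read; Ki by regression assuming reversible pure-competitive inhibition.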

CPB2.8ΔCTE = molecular target: T2, CPB2.8ΔCTE (Leishmania mexicana, UniProt P36400); test: Leishmania mexicana cysteine protease B (CPB) peptidase activity assay (Ki); details: Ki, inhibitors of Leismania mexicana CPB protease
T2 construct: Wild-type recombinant CPB without the C-terminal extention (i.e. CPB2.8ΔCTE); Dr. Jeremy Mottram (Wellcome Centre for Molecular Parasitology, University of Glasgow)
Outline: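 Apparent Ki was derived by regression of activity against inhibitor concentration, assuming pure-competitive reversible binding. Reaction: 0.25 nM CPB lacking the C-terminal extension, pH 5.5 acetate buffer (1 mM EDTA, 200 mM NaCl, 10 mM DTT), 25 °C, followed by continuous substrate fluorescence.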

[1] = read-out: Ki, inhibitors of cruzain and cruzipains

T1 sequence (P07711 114-333): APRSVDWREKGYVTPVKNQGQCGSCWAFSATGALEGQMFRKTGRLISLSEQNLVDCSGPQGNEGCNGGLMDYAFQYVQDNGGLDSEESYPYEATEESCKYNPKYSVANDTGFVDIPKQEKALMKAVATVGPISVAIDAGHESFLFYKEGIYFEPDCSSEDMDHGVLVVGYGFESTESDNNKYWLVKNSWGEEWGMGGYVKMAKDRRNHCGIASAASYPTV
Sequence of Wild-type cruzipain (P25779 whole entry): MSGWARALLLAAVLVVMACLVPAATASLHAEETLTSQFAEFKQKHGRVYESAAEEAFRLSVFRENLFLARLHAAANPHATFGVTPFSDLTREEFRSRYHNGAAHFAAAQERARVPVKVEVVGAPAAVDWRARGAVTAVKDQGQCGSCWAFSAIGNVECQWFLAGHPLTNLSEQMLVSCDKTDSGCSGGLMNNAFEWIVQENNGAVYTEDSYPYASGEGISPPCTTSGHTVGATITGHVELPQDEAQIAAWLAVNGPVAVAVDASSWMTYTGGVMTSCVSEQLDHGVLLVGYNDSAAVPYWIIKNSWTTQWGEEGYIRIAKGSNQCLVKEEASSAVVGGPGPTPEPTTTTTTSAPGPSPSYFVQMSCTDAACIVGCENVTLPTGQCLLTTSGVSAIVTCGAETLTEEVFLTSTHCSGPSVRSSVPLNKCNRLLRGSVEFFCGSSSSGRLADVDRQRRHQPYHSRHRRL
T2 sequence (P36400 126-343, stated change not applied): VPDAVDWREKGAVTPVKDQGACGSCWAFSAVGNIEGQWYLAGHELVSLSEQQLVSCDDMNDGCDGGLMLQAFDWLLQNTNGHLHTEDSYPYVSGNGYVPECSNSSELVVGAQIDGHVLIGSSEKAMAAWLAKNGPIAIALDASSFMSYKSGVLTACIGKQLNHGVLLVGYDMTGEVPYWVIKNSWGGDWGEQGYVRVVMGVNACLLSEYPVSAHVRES

Row | Ki (human cathepsin L) [µM] | SMILES | Ki (Wild-type cruzipain; [1]) [µM] | Ki (CPB2.8ΔCTE) [µM] | Ki (Wild-type cruzipain) [µM]
1 | < 5 | Cc1ccc(C(=O)N2CC(=O)[C@@H]3[C@H]2CCN3C(=O)[C@H](CC2CCCCC2)NC(=O)c2ccsc2)cc1 [Example 293, (3aR,6aS)-Thiophene-3-carboxylic acid {(1S)-1-cyclohexylmethyl-2-[4-(4-methyl-benzoyl)-6-oxo-hexahydro-pyrrolo[3,2-b]pyrrol-1-yl]-2-oxo-ethyl}-amide] |  |  | 
2 | < 5 | O=C1CN(C(=O)c2ccccc2)[C@@H]2CCN(C(=O)[C@H](CC3CCCCC3)NC(=O)N3CCOCC3)[C@H]12 [Example 280, (3aR,6aS)-Morpholine-4-carboxylic acid [(1S)-2-(4-benzoyl-6-oxo-hexahydro-pyrrolo[3,2-b]pyrrole-1-yl)-1-cyclohexylmethyl-2-oxo-ethyl]-amide] |  |  | 
3 | < 5 | O=C(N[C@@H](CC1CCCCC1)C(=O)N1CC[C@@H]2[C@H]1C(=O)CN2C(=O)c1ccccc1)C(c1ccccc1)c1ccccc1 [Example 270, (3aR,6aS)-N-[(1S)-2-(4-Benzoyl-6-oxo-hexahydro-pyrrolo[3,2-b]pyrrol-1-yl)-1-cyclohexylmethyl-2-oxo-ethyl]-2,2-diphenyl-acetamide] |  |  | 
4 | < 5 | CN(C)c1ccc(C(=O)N[C@@H](Cc2ccc(O)cc2)C(=O)N2CC[C@@H]3[C@H]2C(=O)CN3C(=O)c2cccs2)cc1 [Example 359, (3aR,6aS)-4-Dimethylamino-N-{(1S)-1-(4-hydroxy-benzyl)-2-oxo-2-[6-oxo-4-(thiophene-2-carbonyl)-hexahydro-pyrrolo[3,2-b]pyrrol-1-yl]-ethyl}-benzamide] |  |  | 
5 |  | CC(C)C[C@H](NC(=O)c1ccc(N(C)C)cc1)C(=O)N1CC[C@@H]2[C@H]1C(=O)CN2C(=O)c1ccoc1 [Example 97, (3aR,6aS)-4-Dimethylamino-N-{(1S)-1-[4-(furan-3-carbonyl)-6-oxo-hexahydro-pyrrolo[3,2-b]pyrrole-1-carbonyl]-3-methyl-butyl}-benzamide] | < 5 | < 5 | 
6 |  | CC(C)C[C@H](NC(=O)c1ccc(C(C)(C)C)cc1)C(=O)N1CC[C@@H]2[C@H]1C(=O)CN2C(=O)c1ccccc1 [Example 1, (3aR,6aS)-N-[(1S)-1-(4-Benzoyl-6-oxo-hexahydro-pyrrolo[3,2-b]pyrrole-1-carbonyl)-3-methyl-butyl]-4-tert-butylbenzamide] |  | < 5 | < 5
7 |  | CCCCC(=O)N1CC(=O)[C@@H]2[C@H]1CCN2C(=O)[C@H](CC(C)C)NC(=O)c1ccc(N(C)C)cc1 [Example 128, (3aR,6aS)-4-Dimethylamino-N-[(1S)-3-methyl-1-(6-oxo-4-pentanoyl-hexahydro-pyrrolo[3,2-b]pyrrole-1-carbonyl)-butyl]-benzamide] | < 5 | < 5 | 
8 |  | CC(C)C[C@H](NC(=O)c1ccc(N(C)C)cc1)C(=O)N1CC[C@@H]2[C@H]1C(=O)CN2C(=O)[C@@H](O)CC(C)C [Example 233, (3aR,6aS)-4-Dimethylamino-N-{(1S)-1-[4-((2S)2-hydroxy-4 methyl-pentanoyl)-6-oxo-hexahydro-pyrrolo[3,2-b]pyrrole-1-carbonyl]-3-methyl-butyl}-benzamide] | < 5 | < 5 | 
9 |  | CC(C)C[C@H](NC(=O)c1ccc(N(C)C)cc1)C(=O)N1CC[C@@H]2[C@H]1C(=O)CN2C(=O)c1ccccc1Cl [Example 72, (3aR,6aS)-N-{(1S)-1-[4-(2-Chloro-benzoyl)-6-oxo-hexahydro-pyrrolo[3,2-b]pyrrole-1-carbonyl)-3-methyl-butyl}-4-dimethylamino-benzamide] | < 5 | < 5 | 
10 |  | CS(=O)(=O)c1ccccc1C(=O)N1CC(=O)[C@@H]2[C@H]1CCN2C(=O)[C@H](Cc1ccc(O)cc1)NC(=O)c1cccc(CN)c1 [Example 332, (3aR,6aS)-3-Aminomethyl-N-{(1S)-1-(4-hydroxy-benzyl)-2-[4-(2-methanesulfonyl-benzoyl)-6-oxo-hexahydro-pyrrolo[3,2-b]pyrrole-1-yl]-2-oxo-ethyl}-benzamide] | < 5 | < 5 | 
11 |  | CC(C)C[C@H](NC(=O)c1ccc(N(C)C)cc1)C(=O)N1CC[C@@H]2[C@H]1C(=O)CN2C(=O)C1CCCC1 [Example 134, (3aR,6aS)-N-[(1S)-1-(4-Cyclopentanecarbonyl-6-oxo-hexahydro-pyrrolo[3,2-b]pyrrole-1-carbonyl)-3-methyl-butyl]-4-dimethylamino-benzamide] | < 5 | < 5 | 
12 |  | CC(C)C[C@H](NC(=O)c1ccc(C(C)(C)C)cc1)C(=O)N1CC[C@@H]2[C@H]1C(=O)CN2C(=O)c1cccnc1 [Example 5, (3aR,6aS)-4-tert-Butyl-N-{(1S)-3-methyl-1-[6-oxo-4-(pyridine-3-carbonyl)-hexahydro-pyrrolo[3,2-b]pyrrole-1-carbonyl]-butyl}-benzamide] | < 5 | < 5 | 
13 |  | CC(C)C[C@H](NC(=O)c1ccc(N(C)C)cc1)C(=O)N1CC[C@@H]2[C@H]1C(=O)CN2C(=O)c1ccc(OC(F)(F)F)cc1 [Example 71, (3aR,6aS)-4-Dimethylamino-N-{(1S)-3-methyl-1-[6-oxo-(4-trifluoromethoxy-benzoyl)-hexahydro-pyrrolo[3,2-b]pyrrole-1-carbonyl]-butyl}-benzamide] | < 5 | < 5 | 
14 |  | CC(C)C[C@H](NC(=O)c1ccc(N(C)C)cc1)C(=O)N1CC[C@@H]2[C@H]1C(=O)CN2C(=O)c1ccccc1S(C)(=O)=O [Example 42, (3aR,6aS)-4-Dimethylamino-N-{(1S)-1-[4-(2-methanesulfonyl-benzoyl)-6-oxo-hexahydro-pyrrolo[3,2-b]pyrrole-1-carbonyl]-3-methyl-butyl}-benzamide] | < 5 | < 5 | 
15 |  | COc1ccccc1C(=O)N1CC(=O)[C@@H]2[C@H]1CCN2C(=O)[C@H](CC(C)C)NC(=O)c1ccc(N(C)C)cc1 [Example 64, (3aR,6aS)-4-Dimethylamino-N-{(1S)-1-[4-(2-methoxy-benzoyl)-6-oxo-hexahydro-pyrrolo[3,2-b]pyrrole-1-carbonyl]-3-methyl-butyl}-benzamide] | < 5 | < 5 | 
16 |  | Cc1cc(C(=O)N2CC(=O)[C@@H]3[C@H]2CCN3C(=O)[C@H](CC(C)C)NC(=O)c2ccc(N(C)C)cc2)ccc1F [Example 115, (3aR,6aS)-4-Dimethylamino-N-{(1S)-1-[4-(4-fluoro-3-methyl-benzoyl)-6-oxo-hexahydro-pyrrolo[3,2-b]pyrrole-1-carbonyl]-3-methyl-butyl}-benzamide] | < 5 | < 5 | 
17 |  | CC(C)C[C@H](NC(=O)c1ccc(C(C)(C)C)cc1)C(=O)N1CC[C@@H]2[C@H]1C(=O)CN2C(=O)c1ccc2ncsc2c1 [Example 32, (3aR,6aS)-N-{(1S)-1-[4-(Benzothiazole-6-carbonyl)-6-oxo-hexahydro-pyrrolo[3,2-b]pyrrole-1-carbonyl]-3-methyl-butyl}-4-tert-butyl-benzamide] | < 5 | < 5 | 
